In ChEMBL document CHEMBL3112417, “Design, synthesis, radiolabeling and in vivo evaluation of potential positron emission tomography (PET) radioligands for brain imaging of the 5-HT₇ receptor” (Bioorg Med Chem, 2014):

What was measured:
[1] = target: T1, Adrenergic receptor alpha-1 (Rattus norvegicus, UniProt P15823+P23944+P43140); assay: Displacement of [3H]-prazosin from rat brain alpha1 adrenergic receptor after 50 mins
T1 sequence (P15823 whole entry): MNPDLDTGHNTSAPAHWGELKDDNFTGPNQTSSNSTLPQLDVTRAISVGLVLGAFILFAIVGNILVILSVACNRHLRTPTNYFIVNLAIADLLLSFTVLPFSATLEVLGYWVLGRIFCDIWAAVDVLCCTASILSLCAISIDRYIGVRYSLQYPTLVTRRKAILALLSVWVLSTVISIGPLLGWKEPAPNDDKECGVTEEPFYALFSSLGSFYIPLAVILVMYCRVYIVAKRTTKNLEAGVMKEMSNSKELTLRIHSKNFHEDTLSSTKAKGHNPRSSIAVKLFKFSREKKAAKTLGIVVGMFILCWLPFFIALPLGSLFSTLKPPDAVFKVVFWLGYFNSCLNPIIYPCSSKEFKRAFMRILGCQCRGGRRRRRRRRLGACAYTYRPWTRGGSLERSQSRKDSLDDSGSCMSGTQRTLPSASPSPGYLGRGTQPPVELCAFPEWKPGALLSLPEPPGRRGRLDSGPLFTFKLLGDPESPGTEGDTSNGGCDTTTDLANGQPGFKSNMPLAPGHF
T1 sequence (P23944 whole entry): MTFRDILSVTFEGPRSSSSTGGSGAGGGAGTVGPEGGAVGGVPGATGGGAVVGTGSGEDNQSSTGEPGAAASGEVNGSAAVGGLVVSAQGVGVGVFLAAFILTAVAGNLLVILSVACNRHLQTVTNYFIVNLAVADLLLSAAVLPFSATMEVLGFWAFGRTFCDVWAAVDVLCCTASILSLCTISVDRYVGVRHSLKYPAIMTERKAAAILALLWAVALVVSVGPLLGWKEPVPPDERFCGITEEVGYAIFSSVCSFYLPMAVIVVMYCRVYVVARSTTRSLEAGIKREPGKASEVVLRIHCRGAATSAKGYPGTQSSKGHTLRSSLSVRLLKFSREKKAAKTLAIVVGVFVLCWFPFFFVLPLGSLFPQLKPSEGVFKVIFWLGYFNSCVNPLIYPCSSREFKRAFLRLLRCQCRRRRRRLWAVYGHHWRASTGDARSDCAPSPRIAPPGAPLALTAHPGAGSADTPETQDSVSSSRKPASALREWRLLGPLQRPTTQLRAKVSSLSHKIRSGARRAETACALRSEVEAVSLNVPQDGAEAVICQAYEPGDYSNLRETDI
T1 sequence (P43140 whole entry): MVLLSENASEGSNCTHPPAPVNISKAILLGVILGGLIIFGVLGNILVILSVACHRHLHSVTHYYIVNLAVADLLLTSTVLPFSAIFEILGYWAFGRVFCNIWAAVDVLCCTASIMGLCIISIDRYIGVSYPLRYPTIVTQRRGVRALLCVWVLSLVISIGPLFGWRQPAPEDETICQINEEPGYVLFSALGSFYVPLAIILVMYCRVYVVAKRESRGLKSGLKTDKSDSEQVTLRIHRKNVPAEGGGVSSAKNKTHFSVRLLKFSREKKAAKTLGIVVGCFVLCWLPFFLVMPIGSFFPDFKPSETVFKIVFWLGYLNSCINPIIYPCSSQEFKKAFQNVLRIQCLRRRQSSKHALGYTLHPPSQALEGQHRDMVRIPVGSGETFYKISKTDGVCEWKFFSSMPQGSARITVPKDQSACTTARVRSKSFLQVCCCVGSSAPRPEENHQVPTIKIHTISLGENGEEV

[2] = target: T2, 5-hydroxytryptamine receptor 1A (Homo sapiens, UniProt P08908); assay: Displacement of [3H]8-OH-DPAT from human 5HT1A receptor transfected in HEK293-EBNA cells after 120 mins; type: cell-based
T2 sequence (P08908 whole entry): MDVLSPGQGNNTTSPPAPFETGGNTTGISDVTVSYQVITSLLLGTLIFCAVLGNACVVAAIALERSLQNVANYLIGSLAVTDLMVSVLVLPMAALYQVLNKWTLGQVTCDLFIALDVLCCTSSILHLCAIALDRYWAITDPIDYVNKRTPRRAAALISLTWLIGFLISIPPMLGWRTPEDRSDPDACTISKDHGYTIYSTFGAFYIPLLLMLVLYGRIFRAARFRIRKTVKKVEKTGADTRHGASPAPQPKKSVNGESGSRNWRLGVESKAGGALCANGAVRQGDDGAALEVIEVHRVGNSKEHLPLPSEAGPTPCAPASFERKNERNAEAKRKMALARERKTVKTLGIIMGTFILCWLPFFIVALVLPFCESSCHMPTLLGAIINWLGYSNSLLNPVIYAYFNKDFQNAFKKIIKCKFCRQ

[3] = target: T3, 5-hydroxytryptamine receptor 7 (Homo sapiens, UniProt P34969); assay: Displacement of [3H]5-CT from human 5HT7 receptor transfected in HEK293 cells after 60 mins; type: cell-based
T3 sequence (P34969 whole entry): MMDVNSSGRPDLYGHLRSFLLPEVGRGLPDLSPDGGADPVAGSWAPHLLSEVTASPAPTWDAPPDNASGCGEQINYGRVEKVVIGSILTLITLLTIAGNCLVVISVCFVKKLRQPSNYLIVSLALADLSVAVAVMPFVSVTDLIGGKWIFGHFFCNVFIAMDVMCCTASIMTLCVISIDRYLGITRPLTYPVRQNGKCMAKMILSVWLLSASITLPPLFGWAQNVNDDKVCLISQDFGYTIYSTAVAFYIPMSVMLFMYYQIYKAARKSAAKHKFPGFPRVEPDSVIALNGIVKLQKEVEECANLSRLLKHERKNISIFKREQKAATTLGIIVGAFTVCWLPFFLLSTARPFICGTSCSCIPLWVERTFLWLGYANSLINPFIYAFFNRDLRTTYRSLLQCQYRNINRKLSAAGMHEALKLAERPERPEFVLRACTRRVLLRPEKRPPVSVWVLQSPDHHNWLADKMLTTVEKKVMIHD

[4] = Drug metabolism in Danish Landrace pig plasma assessed as compound remaining at 432 +/- 102 MBq, iv after 5 mins; type: ADME, organism-based, Sus scrofa; settings: read-out: Stability
[5] = Drug uptake in Danish Landrace pig brain at 52 to 300 MBq, iv administered 90 mins prior to cyclosporine A challenge measured after 30 mins by PET imaging analysis; type: ADME, organism-based, Sus scrofa; settings: in vivo, 0.5 h
[6] = Drug uptake in Danish Landrace pig brain at 52 to 300 MBq, iv after 90 mins by PET imaging analysis; type: ADME, organism-based, Sus scrofa; settings: in vivo
[7] = target: T3, 5-hydroxytryptamine receptor 7; assay: Displacement of [3H]5-CT from human 5HT7 receptor transfected in HEK293 cells after 60 mins by Scatchard plot analysis; type: cell-based
[8] = Drug metabolism in rat liver S9 fraction assessed as compound remaining at 10 uM after 30 mins by RP-HPLC analysis; type: ADME, subcellular; settings: read-out: Stability
[9] = Efflux ratio of permeability from basolateral to apical side over apical to basolateral side in human Caco2 cells at 10 to 100 uM after 30 to 120 mins; type: ADME, cell-based; settings: Caco-2
[10] = Drug uptake in Danish Landrace pig brain at 432 +/- 102 MBq, iv administered 90 mins prior to cyclosporine A challenge measured after 30 mins by PET imaging analysis; type: ADME, organism-based, Sus scrofa; settings: in vivo, 0.5 h
[11] = Drug uptake in Danish Landrace pig brain at 432 +/- 102 MBq, iv after 90 mins by PET imaging analysis; type: ADME, organism-based, Sus scrofa; settings: in vivo
Sus scrofa = assay: Ratio of drug uptake in Danish Landrace pig brain at 432 +/- 102 MBq, iv in presence of cyclosporine A to drug uptake in Danish Landrace pig brain at 432 +/- 102 MBq, iv after 90 mins; settings: in vivo

| Structure (SMILES) | Ki [1] [nM] | Ki [2] [nM] | Ki [3] [nM] | other results |
| --- | --- | --- | --- | --- |
| COc1ccc(CNC(=O)CCOCCN2CCN(c3cccc(-c4ccccc4OC)c3)CC2)cc1 | > 1000 | 186 | > 1000 |  |
| [11CH3]Oc1ccc(-c2ccccc2N2CCN(CCOCCC(=O)NCc3ccncc3)CC2)cc1 |  |  |  | remaining at 5 min [4]: 30%; Drug uptake [5]: Active; Drug uptake [6]: Active |
| O=C(CCCCCN1CCN(c2cccnc2-c2ccncc2)CC1)NCc1ccc(F)nc1 | 414 | 961 | 66.7 |  |
| COc1ccc(-c2ccccc2N2CCN(CCCCCC(=O)NCc3ccncc3)CC2)cc1 |  |  |  | Bmax [7]: 2.7 pmol/mg; Kd [7]: 1.17 nM; remaining at 0.5 h, 10 µM [8]: 76%; efflux ratio at up to 100 µM [9]: 3.33 |
| COc1ccc(-c2ccccc2N2CCN(CCOCCC(=O)NCc3ccncc3)CC2)cc1 |  |  |  | remaining at 0.5 h, 10 µM [8]: 82%; efflux ratio at up to 100 µM [9]: 4.48 |
| [11CH3]Oc1ccc(-c2ccccc2N2CCN(CCCCCC(=O)NCc3ccncc3)CC2)cc1 |  |  |  | Drug uptake [10]: Active; Drug uptake [11]: Active; Ratio (Sus scrofa): 3 |
| COc1ccc(CNC(=O)CCCCCN2CCN(c3ncccc3-c3ccncc3)CC2)cc1 | 816 | 614 | 26.1 |  |
| O=C(CCCCCN1CCN(c2ncccc2-c2ccncc2)CC1)NCc1ccc(F)nc1 | 255 | 203 | 71 |  |
| COc1ccc(CNC(=O)CCCCCN2CCN(c3cccnc3-c3ccncc3)CC2)cc1 | > 1000 | 537 | 64.2 |  |

Now from value to compound, other results behind:

| Ki [1] [nM] | Ki [2] [nM] | Ki [3] [nM] | Structure (SMILES) | other results |
| --- | --- | --- | --- | --- |
| 365 | 875 | 12.8 | Cc1ccccc1-c1ccccc1N1CCN(CCOCCC(=O)NCc2ccc(F)nc2)CC1 |  |
| 51.3 | 433 | 15.9 | O=C(CCOCCN1CCN(c2ccccc2-c2ccc(F)cc2)CC1)NCc1ccc(F)nc1 |  |
| > 1000 | 387 | > 1000 | COc1ccccc1-c1cccc(N2CCN(CCOCCC(=O)NCc3ccc(F)nc3)CC2)c1 |  |
| 386 | 568 | 34.5 | COc1ccc(-c2ccccc2N2CCN(CCOCCC(=O)NCc3ccc(F)nc3)CC2)cc1 |  |
| 156 | 272 | 45.2 | COc1ccc(CNC(=O)CCOCCN2CCN(c3ccccc3-c3ccc(F)cc3)CC2)cc1 |  |
| 162 | 743 | 33.4 | COc1ccc(CNC(=O)CCOCCN2CCN(c3ccccc3-c3ccccc3C)CC2)cc1 |  |
| 13.3 |  |  | COc1ccc(-c2ccccc2N2CCN(CCCCCC(=O)NCc3ccc(F)nc3)CC2)cc1 |  |
